Consider one compound from paper PMC12429880, “EGFR-Targeted Photodynamic Treatment of Triple Negative Breast Cancer Cell Lines Using Porphyrin–Peptide Conjugates: Synthesis and Mechanistic Insight” (Molecules, 2025).

Series [1] concerns MDA-MB231. The series is described as follows: Intracellular ROS generation (DCFH-DA). The class given is cell-based. Particulars: 24 h at IC50, 2 h irradiation with 10 μM DCFH-DA, 3 independent experiments. As for the experimental part:
(§1) Intracellular ROS generation was assessed using the fluorogenic probe 2′,7′-dichlorodihydrofluorescein diacetate (DCFH-DA; Invitrogen, Molecular Probes). Once internalized, DCFH-DA is hydrolyzed by intracellular esterases to form non-fluorescent dichlorodihydrofluorescein (DCFH), which ROS subsequently oxidizes to the highly fluorescent dichlorofluorescein (DCF). MDA-MB453 and MDA-MB231 cells were seeded in black 96-well plates and treated with the respective PSs at their IC50 concentrations for 24 h. Cells were then irradiated in the presence of 10 μM DCFH-DA. To quantify ROS production, fluorescence intensity was measured using a fluorescence microscope (excitation: 488 nm; emission: 520 nm). Quantitative analysis of fluorescence intensity, expressed in arbitrary fluorescence units, was performed using ImageJ software, version 1.53e, and normalized to untreated control samples.

Series [2] relates to MDA-MB453. The series is described as follows: Intracellular ROS generation (DCFH-DA). The class given is cell-based. Particulars: 24 h at IC50, 2 h irradiation with 10 μM DCFH-DA, 3 independent experiments. As for the experimental part: as §1
Series [3] relates to MDA-MB231. The series can be described thus: Intrinsic (dark) cytotoxicity, MTT assay without photoactivation. The class given is cell-based. The note with it: no photoactivation, ten times the maximum PDT concentration (10 µM), mean ± SD of 5 independent experiments, in % (unit assumed). As for the experimental part: (§2) The photodynamic effect of conjugates 6–8 on cell viability, compared to the reference compound 2, was evaluated using the MTT ([3-(4,5-dimethylthiazol-2-yl)-2,5-diphenyltetrazolium bromide]) assay. Briefly, 3.5 × 10^3 cells per well were seeded in 96-well plates and incubated for 48 h to allow for adherence and growth. Following this incubation period, cells were treated with increasing concentrations of the test compounds (ranging from 1 to 1000 nM), prepared in complete culture medium. All compound dilutions were prepared to ensure a final DMSO concentration of 0.1% (v/v), which is considered non-toxic. Control samples included cells cultured in complete medium alone, as well as a vehicle control treated with 0.1% DMSO in the absence of any compound (PS treatment was omitted). 24 h after treatment with PS, the medium was replaced with 1X PBS. Photoactivation was performed using a 500 W white tungsten halogen lamp, delivering an irradiance of 22 mW/cm^2, corresponding to a total fluence of 158 J/cm^2 over a 2 h irradiation period. To prevent thermal damage from the light source, a cooling system was employed by placing a circulating water filter between the lamp and the irradiation area to dissipate excess heat. Following irradiation, the PBS was replaced with fresh, PS-free culture medium, and cells were incubated at 37 °C. 24 h later, MTT was added to each well at a final concentration of 0.4 mg/mL, and cells were incubated for 3 h at 37 °C to allow the MTT metabolization in viable cells. The resulting formazan crystals were then dissolved in DMSO. Optical density was measured at 590 nm using an Infinite® 200 PRO plate reader (Tecan Life Sciences, Switzerland), and the resulting data were analyzed by non-linear regression using GraphPad PRISM 9.2.0 software (GraphPad Software Inc., San Diego, CA, USA), and IC50 values were extrapolated from these curves.
(§3) The potential intrinsic cytotoxicity of the compounds was assessed under identical experimental conditions, except that the photoactivation step was omitted. […]
In general terms: Formazan colour is commonly taken as a measure of viable cells.

In another series the test system is MCF7. The description is as above. Format: cell-based. Particulars: no photoactivation, ten times the maximum PDT concentration (10 µM), mean ± SD of 5 independent experiments, in % (unit assumed). As for the experimental part: as §2, §3
Series [4] relates to MDA-MB453. The series is described as above. Format: cell-based. The note with it: no photoactivation, ten times the maximum PDT concentration (10 µM), mean ± SD of 5 independent experiments, in % (unit assumed). As to the method:
as §2, §3

Series [5] can be described thus: Photostability (photobleaching) under irradiation. The class given is physicochemical. The text has this:
Compounds incorporating photosensitizing chromophores, such as tetrapyrrolic macrocycles, are susceptible to ROS-mediated photodegradation upon irradiation. Photostability of PSs is a critical parameter for achieving safe, effective, and precise PDT. It ensures sustained generation of ROS, minimizes the formation of potentially toxic or mutagenic degradation products, and preserves the structural and photophysical integrity of the PS during systemic circulation and tumor accumulation. High photostability is particularly important in delayed-activation protocols, enabling selective localization in target tissues. […] Thus, before assessing the photodynamic activity of the conjugates in TNBC cell lines, the photostability of 2 and conjugates 6, 7, and 8 was evaluated under the same conditions employed for the cell viability assays and the other biological studies reported in the present study. […]
To assess whether the peptide moiety underwent photoinduced degradation, samples of porphyrin 2 and its conjugates 6–8 were recovered and analyzed by HPLC at the end of the irradiation period.
For the chemical and biological analyses a 500 W tungsten white halogen lamp was used. […] The lamp has an irradiance of 22 mW/cm^2 (an average value determined between 380 and 780 nm with a Licor-1800 spectroradiometer, Li-COR, Bad Homburg, Germany), equating to 158 J/cm^2 of fluence over 2 h. […]

In the case of `COC(=O)c1ccc(-c2c3nc(c([N+](=O)[O-])c4ccc([nH]4)c(-c4ccc(C(=O)OC)cc4)c4nc(cc5ccc2[nH]5)C=C4)C=C3)cc1` [compound 2, 10-Nitro-5,15-bis(4-carbomethoxyphenyl)porphyrin], the “Intracellular ROS levels” value in the series on MDA-MB231 [1] and in the series with MDA-MB453 [2] was “higher levels of intracellular ROS” each time. In addition, the “Survival fraction (dark toxicity)” value with MDA-MB231 [3] was determined as 91.2 ± 1.26; in the series on MCF7, 89.7 ± 1.16; in the series on MDA-MB453 [4], 90.8 ± 0.66. The “Soret band intensity retained after irradiation” value in series [5] (10 μM in PBS, 2 h exposure to 500 W tungsten-halogen lamp, 22 mW/cm^2, 158 J/cm^2, UV-Vis) is reported as “approximately 90%”. For the same compound, in series [5] (after 2 h irradiation with 500 W tungsten-halogen lamp, HPLC), the “HPLC analysis at the end of the irradiation period (structural integrity)” value is given as “No shifts in retention times were observed”.
